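Dose response: 5 concentrations. Exposure: 48 h. Format: 96-well plates. Endpoint: linear interpolation; highest concentration if not reached. Abbreviation: GI50, concentration required for 50% inhibition of growth.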 Calls of active or inactive are those of the source. Cut-off read from the data, not from the text of the source: active = GI50 up to about 1.1 µM and inactive = higher.
Experiments:
Assay in all cases: inhibition of tumour cell growth, NCI panel, 48 h
786-0 = tested on: 786-0
A549 = tested on: A549
ACHN = tested on: ACHN
BT-549 = tested on: BT-549
CAKI-1 = tested on: CAKI-1
CCRF-CEM = tested on: CCRF-CEM
COLO 205 = tested on: COLO 205
DU-145 = tested on: DU-145
EKVX = tested on: EKVX
HCC 2998 = tested on: HCC 2998
HCT-116 = tested on: HCT-116
HCT-15 = tested on: HCT-15
HL-60 = tested on: HL-60
HOP-62 = tested on: HOP-62
HOP-92 = tested on: HOP-92
HT-29 = tested on: HT-29
Hs-578T = tested on: Hs-578T
IGROV-1 = tested on: IGROV-1
K562 = tested on: K562
KM12 = tested on: KM12
LOX IMVI = tested on: LOX IMVI
M14 = tested on: M14
MCF7 = tested on: MCF7
MDA-MB-231 = tested on: MDA-MB-231
MDA-MB-435 = tested on: MDA-MB-435
MDA-N = tested on: MDA-N
MOLT-4 = tested on: MOLT-4
NCI-H226 = tested on: NCI-H226
NCI-H23 = tested on: NCI-H23
NCI-H460 = tested on: NCI-H460
NCI-H522 = tested on: NCI-H522
NCI/ADR-RES = tested on: NCI/ADR-RES
OVCAR-3 = tested on: OVCAR-3
OVCAR-4 = tested on: OVCAR-4
OVCAR-5 = tested on: OVCAR-5
OVCAR-8 = tested on: OVCAR-8
PC-3 = tested on: PC-3
RPMI-8226 = tested on: RPMI-8226
RXF 393 = tested on: RXF 393
SF-268 = tested on: SF-268
SF-295 = tested on: SF-295
SF-539 = tested on: SF-539
SK-MEL-28 = tested on: SK-MEL-28
SK-MEL-2 = tested on: SK-MEL-2
SK-MEL-5 = tested on: SK-MEL-5
SK-OV-3 = tested on: SK-OV-3
SN12C = tested on: SN12C
SNB-19 = tested on: SNB-19
SNB-75 = tested on: SNB-75
SW-620 = tested on: SW-620
T47D = tested on: T47D
TK-10 = tested on: TK-10
U-251 = tested on: U-251
UACC-257 = tested on: UACC-257
UACC-62 = tested on: UACC-62
UO-31 = tested on: UO-31
A498 = tested on: A498
Malme-3M = tested on: Malme-3M

O=C1/C(=C/c2ccc3c(c2)OCO3)Sc2scc(-c3ccc(O)c(O)c3)[n+]21
GI50 (786-0): 1.92 µM (inactive) | GI50 (A549): 11.1 µM (inactive) | GI50 (ACHN): 1.86 µM (inactive) | GI50 (BT-549): 2.04 µM (inactive) | GI50 (CAKI-1): 1.53 µM (inactive) | GI50 (CCRF-CEM): 0.264 µM (active) | GI50 (COLO 205): 2.55 µM (inactive) | GI50 (DU-145): 4.44 µM (inactive) | GI50 (EKVX): 2.67 µM (inactive) | GI50 (HCC 2998): 1.82 µM (inactive) | GI50 (HCT-116): 1.96 µM (inactive) | GI50 (HCT-15): 1.63 µM | GI50 (HL-60): 0.325 µM (active) | GI50 (HOP-62): 6.44 µM (inactive) | GI50 (HOP-92): 2.65 µM (inactive) | GI50 (HT-29): 3.74 µM (inactive) | GI50 (Hs-578T): 7.13 µM (inactive) | GI50 (IGROV-1): 2.7 µM (inactive) | GI50 (K562): 0.506 µM (active) | GI50 (KM12): 2.65 µM (inactive) | GI50 (LOX IMVI): 2.34 µM (inactive) | GI50 (M14): 3 µM (inactive) | GI50 (MCF7): 3.22 µM (inactive) | GI50 (MDA-MB-231): 3.54 µM (inactive) | GI50 (MDA-MB-435): 3.3 µM (inactive) | GI50 (MDA-N): 3.12 µM (inactive) | GI50 (MOLT-4): 0.927 µM (active) | GI50 (NCI-H226): 13.3 µM (inactive) | GI50 (NCI-H23): 2.69 µM (inactive) | GI50 (NCI-H460): 3.56 µM (inactive) | GI50 (NCI-H522): 1.04 µM (active) | GI50 (NCI/ADR-RES): 1.87 µM (inactive) | GI50 (OVCAR-3): 4.61 µM (inactive) | GI50 (OVCAR-4): 4.2 µM (inactive) | GI50 (OVCAR-5): 8.32 µM (inactive) | GI50 (OVCAR-8): 2.99 µM (inactive) | GI50 (PC-3): 4.38 µM (inactive) | GI50 (RPMI-8226): 1.71 µM (inactive) | GI50 (RXF 393): 3.11 µM (inactive) | GI50 (SF-268): 3.9 µM (inactive) | GI50 (SF-295): 10 µM (inactive) | GI50 (SF-539): 2.31 µM (inactive) | GI50 (SK-MEL-28): 3.08 µM (inactive) | GI50 (SK-MEL-2): 10.8 µM (inactive) | GI50 (SK-MEL-5): 2.54 µM (inactive) | GI50 (SK-OV-3): 8.11 µM (inactive) | GI50 (SN12C): 2.04 µM (inactive) | GI50 (SNB-19): 10.7 µM (inactive) | GI50 (SNB-75): 0.644 µM (active) | GI50 (SW-620): 1.99 µM (inactive) | GI50 (T47D): 2.97 µM (inactive) | GI50 (TK-10): 2.04 µM (inactive) | GI50 (U-251): 4.62 µM (inactive) | GI50 (UACC-257): 3.6 µM (inactive) | GI50 (UACC-62): 2.67 µM (inactive) | GI50 (UO-31): 2.29 µM (inactive)

CC(=O)SSC1(Cl)C(C)(C)C(Cl)(SSC(C)=O)C1(C)C (centres undefined)
GI50 (786-0): 49.2 µM (inactive) | GI50 (A498): 67.5 µM (inactive) | GI50 (A549): 73.6 µM (inactive) | GI50 (ACHN): 63.4 µM (inactive) | GI50 (BT-549): > 100 µM (inactive) | GI50 (CAKI-1): > 100 µM (inactive) | GI50 (CCRF-CEM): 24 µM (inactive) | GI50 (COLO 205): > 100 µM (inactive) | GI50 (DU-145): 29.6 µM (inactive) | GI50 (EKVX): 39.9 µM (inactive) | GI50 (HCT-116): 44 µM (inactive) | GI50 (HCT-15): 34.7 µM | GI50 (HOP-62): 44.3 µM (inactive) | GI50 (HOP-92): > 100 µM (inactive) | GI50 (HT-29): 49.4 µM (inactive) | GI50 (Hs-578T): > 100 µM (inactive) | GI50 (IGROV-1): 51.2 µM (inactive) | GI50 (KM12): 39.4 µM (inactive) | GI50 (LOX IMVI): 33.3 µM (inactive) | GI50 (M14): 84.1 µM (inactive) | GI50 (MCF7): 33.6 µM (inactive) | GI50 (MDA-MB-231): > 100 µM (inactive) | GI50 (MDA-MB-435): 49.1 µM (inactive) | GI50 (MDA-N): 65 µM (inactive) | GI50 (Malme-3M): 84.5 µM (inactive) | GI50 (NCI-H226): > 100 µM (inactive) | GI50 (NCI-H23): 57.1 µM (inactive) | GI50 (NCI-H460): 28.5 µM (inactive) | GI50 (NCI-H522): 38.8 µM (inactive) | GI50 (NCI/ADR-RES): 40.2 µM (inactive) | GI50 (OVCAR-3): 61.4 µM (inactive) | GI50 (OVCAR-4): 48.1 µM (inactive) | GI50 (OVCAR-5): > 100 µM (inactive) | GI50 (OVCAR-8): 39.4 µM (inactive) | GI50 (PC-3): 41.3 µM (inactive) | GI50 (RXF 393): 21 µM (inactive) | GI50 (SF-268): 43.6 µM (inactive) | GI50 (SF-295): 43.5 µM (inactive) | GI50 (SF-539): 24.5 µM (inactive) | GI50 (SK-MEL-28): > 100 µM (inactive) | GI50 (SK-MEL-2): > 100 µM (inactive) | GI50 (SK-MEL-5): 29.8 µM (inactive) | GI50 (SK-OV-3): > 100 µM (inactive) | GI50 (SN12C): 77.8 µM (inactive) | GI50 (SNB-19): 35 µM (inactive) | GI50 (SNB-75): 30.4 µM (inactive) | GI50 (SW-620): 40.1 µM (inactive) | GI50 (T47D): 20.8 µM (inactive) | GI50 (TK-10): 75.2 µM (inactive) | GI50 (U-251): 33.3 µM (inactive) | GI50 (UACC-257): 41.3 µM (inactive) | GI50 (UACC-62): 52.6 µM (inactive) | GI50 (UO-31): 94.8 µM (inactive)

Reference: ChEMBL document CHEMBL1201862, “PubChem BioAssay data set” (2004)
